In PMC7395068, “The evolution of strategies to minimise the risk of human drug-induced liver injury (DILI) in drug discovery and development” (Archives of Toxicology, 2020):
Read-outs that look alike come from different tables or passages of the source.

Columns and labels:
[1] = test system: hLiMTs; assay: Combined HCI (HCS) and cellular ATP 3D assay in hLiMTs
[2] = test system: HepG2 cells; details: In vitro Assay; ref Tolosa 2012; cited from earlier work
[3] = Plasma free fraction (fu) and unbound Cmax (Cmax,u); format: in vitro ADME, human; details: unbound plasma Cmax
[4] = test system: hLiMTs; details: cited from earlier work
[5] = read-out: Human plasma Cmax; total plasma Cmax.tot, median of 9 literature references; cited from earlier work
[6] = test system: HepG2 C3A spheroid, BSEP, Glu/Gal in HepG2 cells, bioactivation; details: cited from earlier work
[7] = test system: THLE-Null and THLE-3A4 cells; details: In vitro Assay; ref Gustafsson 2014; cited from earlier work
[8] = cited from earlier work
[9] = test system: HepG2 cells, primary human hepatocytes; details: In vitro Assay; ref Garside 2014; cited from earlier work
[10] = test system: human hepatocytes; details: cited from earlier work
[11] = test system: Upcyte human hepatocytes; details: In vitro Assay; ref Tolosa 2019; cited from earlier work
[12] = test system: HepaRG spheroids; assay: Combined HCI (HCS) and cellular ATP 3D assay in HepaRG spheroids; details: for AC50 / minimal effective concentration: Homo sapiens
[13] = test system: rBsep; details: In vitro Assay; ref Dawson 2012; cited from earlier work
[14] = test system: PHH spheroids; details: cited from earlier work
[15] = plasma free fraction; cited from earlier work
[16] = test system: THLE or HepG2 cells, isolated mitochondria, BSEP; details: cited from earlier work
[17] = test system: primary human hepatocytes, NIH3T3 fibroblasts, BSEP, CYP3A4; details: cited from earlier work
[18] = test system: HepG2 cells; details: cited from earlier work
[19] = test system: HepG2 cells; details: cited from earlier work; remark: listed apart in the source
[20] = ref Chen 2011; cited from earlier work
[21] = cited from earlier work; remark: listed apart in the source
[22] = test system: PHH; details: cited from earlier work
[23] = Microtissue model structural based (HCI), combined HCS and ATP, MEC < 25 × Cmax.tot cut-off
[24] = In vitro Assay, ref Proctor 2017
[25] = Modeled in vitro assays (cytotoxicity, mitochondrial dysfunction, BSEP), ref Aleo et al. 2019
[26] = In vitro Assay, ref Schadt 2015
[27] = In vitro Assay, ref Persson 2013

hLiMTs <25x Avg Cmax ATP ([1]; hLiMTs, ATP endpoint, cut-off <25x Avg Cmax): -ve | hLiMTs <100x Avg Cmaxu ATP ([1]; hLiMTs, ATP endpoint, cut-off <100x Avg Cmaxu): -ve | hLiMTs <25x Avg Cmax HCS ([1]; hLiMTs, HCS endpoints, cut-off <25x Avg Cmax): +ve | hLiMTs <100x Avg Cmaxu HCS ([1]; hLiMTs, HCS endpoints, cut-off <100x Avg Cmaxu): +ve (<100x Avg Cmaxu) | hLiMTs <25x Avg Cmax All ([1]; hLiMTs, all endpoints (ATP and HCS), cut-off <25x Avg Cmax): +ve | hLiMTs Cmax max All ([1]; hLiMTs, all endpoints, Cmax max used): +ve | hLiMTs Cmax min All ([1]; hLiMTs, all endpoints, Cmax min used): -ve | hLiMTs <10 uM All ([1]; hLiMTs, all endpoints, cut-off <10 uM): +ve (<10 uM) | hLiMTs <100x Avg Cmaxu All ([1]; hLiMTs, all endpoints, cut-off <100x Avg Cmaxu): +ve (<100x Avg Cmaxu) | Human plasma Cmax,u [3]: 2.315 µM | HepaRG <25x Avg Cmax ATP ([12]; HepaRG, ATP endpoint, cut-off <25x Avg Cmax): +ve | HepaRG <100x Avg Cmaxu ATP ([12]; HepaRG, ATP endpoint, cut-off <100x Avg Cmaxu): +ve (<100x Avg Cmaxu) | HepaRG <25x Avg Cmax HCS ([12]; HepaRG, HCS endpoints, cut-off <25x Avg Cmax): +ve | HepaRG <100x Avg Cmaxu HCS ([12]; HepaRG, HCS endpoints, cut-off <100x Avg Cmaxu): +ve (<100x Avg Cmaxu) | HepaRG <25x Avg Cmax All ([12]; HepaRG, all endpoints (ATP and HCS), cut-off <25x Avg Cmax): +ve | HepaRG Cmax max All ([12]; HepaRG, all endpoints, Cmax max used): +ve | HepaRG Cmax min All ([12]; HepaRG, all endpoints, Cmax min used): +ve | HepaRG <10 uM All ([12]; HepaRG, all endpoints, cut-off <10 uM): +ve (<10 uM) | HepaRG <100x Avg Cmaxu All ([12]; HepaRG, all endpoints, cut-off <100x Avg Cmaxu): +ve (<100x Avg Cmaxu)
SMILES: CN(Cc1cnc2nc(N)nc(N)c2n1)c1ccc(C(=O)N[C@@H](CCC(=O)O)C(=O)O)cc1 [methotrexate, reference compound]
DILI prediction hLiMTs, HCI alone ([1]; HCS endpoints only, 25 × Cmax.tot cut-off): detection | AC50 ([1]; Homo sapiens, read-out: HCS endpoint AC50): 16.9 µM | minimal effective concentration ([1]; Homo sapiens, read-out: HCS endpoint MEC): 0.703 µM | DILI prediction hLiMTs (HCS-MEC) [1, 23]: +VE (MEC < 25 × Cmax.tot cut-off) | DILI prediction hLiMTs, ATP alone ([1]; cellular ATP only, 25 × Cmax.tot cut-off): unpredicted | Structural based (HCI) [2]: +VE | hLiMTs ATP <100uM [4, 24]: -VE | hLiMTs/100uM, Proctor (2017) ([4]; hLiMTs, ATP, IC50 threshold 100 µM, ref Proctor et al. 2017): -VE | Cmax [5]: 4.63 µM | Bayesian Machine Learning DILI prediction, Williams (2019) ([6]; Bayesian modeling, ref Williams et al. 2019): +VE | Bayesian Machine Learning ([6]; In vitro Assay, ref Williams 2019): +VE | THLE-Null [7]: -VE | DILI severity category (Chen et al. [2016]) ([8]; LTKB DILIrank category, ref Chen et al. 2016): Most | DILI severity category (Chen 2016) ([8]; human DILI classification, LTKB DILIrank, ref Chen et al. 2016): Most | DILI severity category ([8]; human DILI severity, ref Chen et al.): Most | DILI +VE (5-8), DILI -VE (-4) ([8]; ref Chen 2016): +VE | DILI severity category ([8]; ref Chen 2016): vMost-DILI-Concern | Cluster 1-6 +VE Assay [9]: -VE | Structural based (HCI) ([10]; In vitro Assay, ref Xu 2008): -VE | DILI in vitro assay prediction, Xu (2008) ([10]; Structural based (HCI), human hepatocytes, ref Xu et al. 2008): -VE | Upcytes multi donor assay 14day data [11]: +VE | AC50 ([12]; HepaRG, read-out: ATP endpoint AC50): 0.2 µM | minimal effective concentration ([12]; HepaRG, read-out: ATP endpoint MEC): 0.2 µM | AC50 ([12]; HepaRG, read-out: HCS endpoint AC50): 0.2 µM | minimal effective concentration ([12]; HepaRG, read-out: HCS endpoint MEC): 0.2 µM | DILI prediction HepaRG spheroids (HCS-MEC) [12, 23]: +VE (MEC < 25 × Cmax.tot cut-off) | Inhibition of rBsep cutoff<1& cmax u>.2 [13]: -VE | Inhibition of rBsep cutoff<3 [13]: -VE | hLiMTs ATP <20 x Cmax ([14]; In vitro Assay, ref Vorrink 2018): +VE (IC20 < 20 × Cmax.tot cut-off) | DILI in vitro assay prediction, Vorrink (2018) ([14]; PHH spheroids, ATP, 14 days, IC20 < 20 × Cmax.tot, ref Vorrink et al. 2018): +VE (IC20 < 20 × Cmax.tot cut-off) | fu [15]: 0.500 | Partition Hybrid HRM Score ([16]; In vitro Assay, ref Aleo 2019): +VE | Ro2 Hybrid HRM Score ([16]; In vitro Assay, ref Aleo 2019): +VE | Partition Hybrid HRM Score ≥4, Aleo (2019) [16, 25]: +VE (Partition Hybrid HRM Score ≥4) | Partition Hybrid HRM Score ≥8, Aleo (2019) [16, 25]: -VE | Rule of Two hybrid HRM Score ≥3, Aleo (2019) [16, 25]: +VE (Rule of Two hybrid HRM Score ≥3) | Rule of Two hybrid HRM Score ≥8, Aleo (2019) [16, 25]: -VE | DILI in vitro assay prediction, Schadt (2015) ([17]; BSEP & Metabolism based, ref Schadt et al. 2015): -VE | Cellular toxicity (3T3 cells) [17, 26]: -VE | GSH adduct HML [17, 26]: -VE | Hepatocyte cellular toxicity [17, 26]: -VE | MitoTox 3T3 [17, 26]: -VE | TDI CYP3A4 [17, 26]: -VE | hBSEP inhibition [17, 26]: -VE | Cluser analysis [18, 27]: -VE | Structural based (HCI) [18, 27]: -VE | DILI in vitro assay prediction, Persson (2013) ([18]; Structural based (HCI), HepG2, ref Persson et al. 2013): -VE | Structural based (HCI) ([19]; In vitro Assay, ref O'Brien 2006): +VE | DILI in vitro assay prediction, O'Brien (2006) ([19]; Structural based (HCI), HepG2, ref O'Brien et al. 2006): +VE (lowest HCI endpoint IC50 (or in the absence of dose–response < 100 µM) < 30 × total human plasma exposure levels (Cmax.tot)) | DILI Score (FDA) (1-8) [20]: 3 | Assigned DILI category ([21]; Chen et al. 2016 or literature alignment, ref Chen et al. 2016): 3 | In vivo DILI ([21]; […]): +VE | In vivo DILI ([21]; ref Aleo 2019): +VE | In vivo DILI ([21]; ref Dawson 2012): +VE | In vivo DILI ([21]; ref Garside 2014): +VE | In vivo DILI ([21]; ref Gustafsson 2014): +VE | In vivo DILI ([21]; ref O'Brien 2006): +VE | In vivo DILI ([21]; ref Persson 2013): +VE | In vivo DILI ([21]; ref Proctor 2017): +VE | In vivo DILI ([21]; ref Schadt 2015): +VE | In vivo DILI ([21]; ref Tolosa 2012): +VE | In vivo DILI ([21]; ref Tolosa 2019): +VE | In vivo DILI ([21]; ref Vorrink 2018): +VE | In vivo DILI ([21]; ref Williams 2019): +VE | In vivo DILI ([21]; ref Xu 2008): +VE | PHH/100uM, Proctor (2017) ([22]; 2D PHH, ATP, IC50 threshold 100 µM, ref Proctor et al. 2017): -VE | PHH ATP <100uM [22, 24]: -VE
